Experimental findings from patent US10183011B2, “Anti-depression compounds” (Board of Regents of the University of Texas System, priority 2009, dated 2019) are described below.

“Also recorded” adds a separate entry of the source. Like-named read-outs stand apart in the source and are kept apart here.

The subject of data set [1] is neural precursor cells in the subgranular zone of the dentate gyrus. Description: In vivo pro-neurogenic efficacy/neuroprotection assay: intracerebroventricular infusion, BrdU incorporation in the dentate gyrus. Also noted: species or system mouse (C57/Bl6). To be noted: for pro-neurogenic activity in the in vivo hippocampal neurogenesis assay: direct administration into the brain via Alzet minipumps for one week, 10 μM unless stated. How it is done:
Compounds were evaluated for pro-neurogenic efficacy/neuroprotection in our standard in vivo assay at 10 μM concentration in four 12 week old adult male C57/Bl6 mice.
In an effort to identify compounds that might stimulate the birth of new neurons, or protect newborn neurons from cell death, a library of 1,000 compounds was screened using an in vivo assay. In the initial screen, compounds were randomly pooled into groups often and administered intracerebroventricularly at a constant rate over seven days into the left lateral ventricle of living mice via Alzet osmotic mini-pumps. Compounds were administered at a concentration of 10 μM for each molecule, making a total solute concentration of 100 μM. After seven days of infusion at a constant rate of 0.5 μL/hour, a total of 84 μL of volume will have left the pump (0.00084 μMoles) and entered the cerebrospinal fluid. The average volume of a brain from a 12 week old male, C57/B6 mouse in our study is 500 mm^3. […] Under these conditions, at the end of one week of infusion each compound would be present at 1.7 μMolar concentration. Since the actual amount of chemical compound in the brain is likely to be only a fraction of this predicted level, it is reasonable to estimate that compounds were administered at mid to low-nanomolar concentrations.
During compound infusion, animals were intraperitoneally (IP) injected daily with the thymidine analog, bromodeoxyuridine (BrdU), as a means of scoring the birth and survival of proliferating neural precursor cells in the hippocampus. Because both social interaction and voluntary exercise are known to stimulate hippocampal neurogenesis, mice were housed individually without access to running wheels throughout the screening period. Following the week-long period of compound administration, animals were perfused and sacrificed. Dissected brain tissue was fixed, embedded, sectioned, stained with antibodies to BrdU, and evaluated by light microcopy as a means of quantifying neurogenesis and survival of newborn neural precursor cells localized to the subgranular layer of the dentate gyrus on the brain hemisphere contralateral to the side of mini-pump cannulation. Every fifth section throughout the entire rostral-caudal extent of the hippocampus was analyzed, and the total number of BrdU+ cells was normalized against the measured volume of the dentate gyrus. Because both increased proliferation and survival of newborn neurons are important screening parameters, the screen was conducted over seven days in order to cast a wide net to detect molecules that might augment either process. […] Intracranial infusions of either fibroblast growth factor 2 (FGF-2) or artificial cerebral spinal fluid (aCSF) vehicle via the same, week-long protocol were employed as positive and negative controls. There was no difference in the number of BrdU-labeled cells in the dentate gyrus between mice subjected to surgical pump implantation and infusion with vehicle, and mice having had no surgery (FIG. 2). This confirmed the validity of the in vivo approach to assess the ability of intracerebroventricularly infused compounds to enhance hippocampal neurogenesis in the contralateral hemisphere.
In order to further study Example 45 Compound, an in vivo structure activity relationship (SAR) study was conducted using 37 chemical derivatives of the compound for pro-neurogenic activity via direct administration into the brain of adult mice via Alzet minipumps. Compounds were administered for one week at 10 uM into 4 mice per compound, along with daily IP injections of BrdU. Following compound administration, animals were perfused, sacrificed and subjected to sectioning, staining and light microscopy in order to monitor hippocampal neurogenesis localized to the subgranular layer of the dentate gyrus. Roughly 10% of the variant compounds retained pro-neurogenic activity indistinguishable from the parent compound. […]

A further data set addresses H1 histamine receptor (Homo sapiens, UniProt P35367). The experiment in a line: Binding to the H1 histamine receptor. On the procedure: Example 45 Compound and Dimebon were tested for binding to the H1 histamine receptor.
The nature of data set [2]: Brain and blood levels three weeks after MPTP administration (LC/MS/MS). Format: in vivo, mouse (C57BL/6). The following applies: 21 days i.p. dosing after MPTP. On the procedure:
Data are expressed as mean±SEM. Three animals were tested per group.
C57BL/6 mice treated with MPTP and then dosed IP with compound for 21 days were utilized for pharmacokinetic (PK) analysis of total P7C3, P7C3A20 and Dimebon levels in plasma and brain. In a separate set of experiments designed to test the ability of new P7C3 analogs to cross the blood brain barrier, C57BL/6 mice were dosed IP a single time with compounds at 10 mg/kg. P7C3, P7C3A20 and Dimebon were formulated for administration as described above. Analogs were formulated in 5% Dextrose, pH 7.4, containing 5% DMSO and 10% Cremophor EL with the exception of P7C3-S8 which required 10% DMSO and 20% Cremophor EL dissolved in 5% Dextrose for delivery. Six hours after the final compound dose, animals were given an inhalation overdose of CO2 and whole blood and brain collected. Plasma was prepared from blood and was stored along with the brain tissue at −80° C. until analysis. […] The supernatant was then analyzed by LC/MS/MS. […] The limit of quantitation (LOQ) was defined as the lowest concentration at which back calculation yielded a concentration within 20% of the theoretical value and above the LOD signal. […] Compound levels were monitored by LC/MS/MS using an AB/Sciex (Framingham, Mass.) 3200 Qtrap mass spectrometer coupled to a Shimadzu (Columbia, Md.) Prominence LC.

Sequence of H1 histamine receptor (P35367 whole entry): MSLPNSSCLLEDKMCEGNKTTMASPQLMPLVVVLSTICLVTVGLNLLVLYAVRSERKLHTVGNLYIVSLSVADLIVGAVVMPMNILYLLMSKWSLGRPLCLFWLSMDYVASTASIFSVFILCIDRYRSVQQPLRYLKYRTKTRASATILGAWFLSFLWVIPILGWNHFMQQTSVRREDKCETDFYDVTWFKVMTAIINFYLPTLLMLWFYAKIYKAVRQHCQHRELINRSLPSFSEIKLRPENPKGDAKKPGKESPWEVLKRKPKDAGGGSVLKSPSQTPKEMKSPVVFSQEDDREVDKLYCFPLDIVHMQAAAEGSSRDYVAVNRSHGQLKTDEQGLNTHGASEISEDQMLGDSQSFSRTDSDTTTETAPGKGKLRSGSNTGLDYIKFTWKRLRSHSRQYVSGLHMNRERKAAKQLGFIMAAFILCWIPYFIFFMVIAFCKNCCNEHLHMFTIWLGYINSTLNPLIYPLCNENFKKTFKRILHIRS

One may read the IC50 as the concentration needed to halve the response being measured. With `OC(CNc1ccccc1)Cn1c2ccc(Br)cc2c2cc(Br)ccc21` (stereo not shown) [Example 45 Compound], the “pro-neurogenic activity in the in vivo hippocampal neurogenesis assay” value in data set [1] is “pro-neurogenic or neuroprotective activity at both concentrations”. Besides, in data set [1] (higher than Dimebon), the “ceiling of efficacy relative to Dimebon in the in vivo test of hippocampal neurogenesis” value is on record as “roughly 40%”. Besides, on H1 histamine receptor (both enantiomers), the IC50 was over 10 µM. As to `Cc1ccc2c(c1)c1c(n2CCc2ccc(C)nc2)CCN(C)C1` [Dimebon, 2,3,4,5-Tetrahydro-2,8-dimethyl-5-(2-(6-methyl-3-pyridyl)ethyl)-1H-pyrido(4,3-b)indole, reference compound], in data set [2], the “brain accumulation relative to other compound” value is given as “comparable levels of brain accumulation to P7C3A20; also recorded: equivalent to P7C3”. The 50% inhibitory concentration (IC50) on H1 histamine receptor was under 0.1 µM. Regarding `COc1cccc(NCC(F)Cn2c3ccc(Br)cc3c3cc(Br)ccc32)c1` (stereo not shown) [Example P7C3A20, N-(3-(3,6-dibromo-9H-carbazol-9-yl)-2-fluoropropyl)-3-methoxyaniline], the “brain accumulation relative to other compound” value in data set [2] is “less than one-tenth the concentration of P7C3; also recorded: about one-tenth”. As to `OC(CNc1cccc2ccccc12)Cn1c2ccc(Cl)cc2c2cc(Cl)ccc21` (stereo not shown) [Example P7C3-S184], in data set [1], the “pro-neurogenic activity in the in vivo hippocampal neurogenesis assay” value is “inactive in both in vivo assays”.
